According to patent US20250276998A1, “NOVEL DAROBACTIN DERIVATIVES” (Helmholtz-Zentrum Fur Infektionsforschung GmbH, priority 2021, published 2025):
≈ marks a conversion by molar mass, not a printed value.

Tests used:
P. aeruginosa PAO1 = assay: Microbroth dilution of crude extracts, concentration factor at full growth inhibition; assay type: cell-based, Pseudomonas aeruginosa
Description: (§1) Crude extracts containing the respective darobactin derivatives obtained by the heterologous expression and separation protocol described above were tested for their activity against exemplified Gram-negative bacteria in standard microbroth dilution assays. The presence of darobactin derivatives in the crude extracts was verified by checking the expected masses via LC-HRMS.
(§2) All microorganisms were handled according to standard procedures as recommended by the depositor. Strains were obtained from the German Collection of Cell Cultures and Microorganisms (Klebsiella pneumoniae DSM-30104, Acinetobacter baumannii DSM-30007 and A. baumannii DSM-30008), the American Type Culture Collection (Escherichia coli ATCC-25922), or were part of our internal strain collection (Pseudomonas aeruginosa PAO1, PA14 and PA14ΔmexAB).
(§3) For the MIC assay, 10 μl of crude extract of each test sample, diluted in 50% methanol/H2O, was added each into a well of the first row of a 96 well plate. […] Then, 75 μl of cation-adjusted Mueller-Hinton broth medium was added to each well and the samples contained in the first row were mixed with the 75 μl medium/extract mixture. Starting from the 150 μl mixtures in the first row, serial dilutions of the respective mixtures were prepared in corresponding subjacent rows of the 96 well plate. […]

A. baumannii DSM-30008 = assay: as above; assay type: cell-based, Acinetobacter baumannii; details: A. baumannii DMS-30008
Description: as §1, §2, §3

E. coli ATCC25922 [1] = assay: as above; assay type: cell-based, Escherichia coli
Description: as §1, §2, §3

K. pneumoniae DSM-30104 = assay: as above; assay type: cell-based, Klebsiella pneumoniae
Description: as §1, §2, §3

[2] = tested on: A. baumannii 038 (OXA-23); assay: MIC against clinical isolates of A. baumannii; assay type: cell-based, Acinetobacter baumannii; details: clinical isolate A. baumannii 038 (OXA-23)
[3] = tested on: A. baumannii 045 (OXA-58); assay: MIC against clinical isolates of A. baumannii; assay type: cell-based, Acinetobacter baumannii; details: clinical isolate A. baumannii 045 (OXA-58)
[4] = tested on: A. baumannii 054 (OXA-51-ISAba1); assay: MIC against clinical isolates of A. baumannii; assay type: cell-based, Acinetobacter baumannii; details: clinical isolate A. baumannii 054 (OXA-51-ISAba1)
[5] = tested on: A. baumannii 046 (OXA-40); assay: MIC against clinical isolates of A. baumannii; assay type: cell-based, Acinetobacter baumannii; details: clinical isolate A. baumannii 046 (OXA-40)
A. baumannii 070 (NDM-1) = assay: MIC against clinical isolates of A. baumannii; assay type: cell-based, Acinetobacter baumannii; details: clinical isolate A. baumannii 070 (NDM-1)
[6] = tested on: A. baumannii 047 (OXA-235); assay: MIC against clinical isolates of A. baumannii; assay type: cell-based, Acinetobacter baumannii; details: clinical isolate A. baumannii 047 (OXA-235)
E. coli ATCC25922 [7] = assay: MIC assay of crude extracts, relative activity vs darobactin A; assay type: cell-based, Escherichia coli; details: crude extract, relative to darobactin A, amount from LC-MS AUC
Description: as §1, with “of” for “containing the respective”, “with a minimum inhibitory concentration (MIC) assay.” for “in standard microbroth dilution assays.”, “LC-MS.” for “LC-HRMS.”
(§4) For the MIC assay, 10 μl of crude extract of each test sample, diluted in 50% methanol/H2O, was added each into a well of the first row of a 96 well plate. […] Then, 75 μl of cation-adjusted Mueller-Hinton broth medium was added to each well and the samples contained in the first row were mixed with the 75 μl medium/extract mixture. Starting from the […] mixtures in the first row, serial dilutions of the respective mixtures were prepared in corresponding subjacent rows of the 96 well plate. Bacterial suspensions of each strain to be tested were diluted 1:100 in cation-adjusted Mueller-Hinton broth to obtain a final inoculum of approximately 10^6 CFU/mL. 75 μl of each bacterial suspension to be tested was added to the respective crude extract samples in the wells of the 96 well plate and the plates were incubated at either 30° C. or 37° C. for at least 24 h under static conditions. Plates were then checked visually and MIC was determined as lowest concentration where no visible growth was observed. In order to quantify the activity of the obtained darobactin derivatives, their relative activity in relation to the activity of darobactin A was determined. The amount of darobactin derivative present in the extract test sample was calculated based on the area under the curve (AUC) of the mass peak as automatically calculated by software DataAnalysis 4.2 and extracted from the LC-MS measurements of each of the crude extract samples. Using the AUC of the mass peak of darobactin A (DA) as calibration standard, i.e. ratio between AUC of darobactin derivative and darobactin A was correlated to amount of compound present in sample. The results of activities of tested darobactin derivatives against exemplified Gram-negative bacteria as compared to the activity of darobactin A are summarized in Table 5 below.

[8] = tested on: Pseudomonas aeruginosa PA01; assay: as above; assay type: cell-based; details: crude extract, relative to darobactin A, amount from LC-MS AUC
Description: as §1, with “of” for “containing the respective”, “with a minimum inhibitory concentration (MIC) assay.” for “in standard microbroth dilution assays.”, “LC-MS.” for “LC-HRMS.”
as §4

[9] = tested on: Acinetobacter baumannii DSM-30008; assay: as above; assay type: cell-based; details: crude extract, relative to darobactin A, amount from LC-MS AUC
Description: as §1, with “of” for “containing the respective”, “with a minimum inhibitory concentration (MIC) assay.” for “in standard microbroth dilution assays.”, “LC-MS.” for “LC-HRMS.”
as §4

[10] = tested on: Klebsiella pneumoniae DSM-30104; assay: as above; assay type: cell-based; details: crude extract, relative to darobactin A, amount from LC-MS AUC
Description: as §1, with “of” for “containing the respective”, “with a minimum inhibitory concentration (MIC) assay.” for “in standard microbroth dilution assays.”, “LC-MS.” for “LC-HRMS.”
as §4

Row | Structure (SMILES) | Relative activity (E. coli ATCC25922 [7]) | Relative activity [8] | Relative activity [9] | Relative activity [10] | further results
1 | C[C@@H](O)[C@@H]1NC(=O)[C@H]2NC(=O)[C@H](CC(N)=O)NC(=O)[C@@H](N)Cc3c[nH]c4c(cccc34)O[C@@H]2c2c[nH]c3cc(ccc23)C(CCNC(=N)N)[C@@H](C(=O)N[C@@H](CCCNC(=N)N)C(=O)N[C@@H](Cc2c[nH]c3ccccc23)C(=O)O)NC1=O (stereo partly shown) [Darobactin 39] | – | – | – | – | Concentration factor of crude extract at which full growth inhibition is observed (P. aeruginosa PAO1): 0.11x; Concentration factor of crude extract at which full growth inhibition is observed (A. baumannii DSM-30008): 0.05x; Concentration factor of crude extract at which full growth inhibition is observed (E. coli ATCC25922 [1]): 0.42x; Concentration factor of crude extract at which full growth inhibition is observed (K. pneumoniae DSM-30104): 0.42x
2 | CCCCCCC1OC(=O)CNC(=O)C(C(C)O)NC(=O)C(CO)NC(=O)C(C(C)CC)NC(=O)C(CC(C)C)N(C)C(=O)C1C (stereo not shown) [Globomycin] | – | – | – | – | MIC [2]: 32 µg/mL (≈ 48.8 µM); MIC [3]: 64 µg/mL (≈ 97.6 µM); MIC [4]: >64 µg/mL; MIC [5]: 32 µg/mL (≈ 48.8 µM); MIC (A. baumannii 070 (NDM-1)): 16 µg/mL (≈ 24.4 µM); MIC [6]: 64 µg/mL (≈ 97.6 µM)
3 | N=C(N)NCC[C@H]1c2ccc3c(c[nH]c3c2)[C@H]2Oc3cccc4c(c[nH]c34)C[C@H](N)C(=O)N[C@@H](CC(N)=O)C(=O)N[C@@H]2C(=O)N[C@@H](CO)C(=O)N[C@@H]1C(=O)N[C@@H](CO)C(=O)N[C@@H](Cc1ccccc1)C(=O)O [Darobactin D] | ++++ | ++++ | ++++ | 0 | –
4 | C[C@H](NC(=O)[C@H]1NC(=O)[C@H](CO)NC(=O)[C@H]2NC(=O)[C@H](CC(N)=O)NC(=O)[C@@H](N)Cc3c[nH]c4c(cccc34)O[C@@H]2c2c[nH]c3cc(ccc23)[C@@H]1CCCN)C(=O)N[C@@H](Cc1ccccc1)C(=O)O [Darobactin 16] | + | + | + | + | –
5 | NCCC[C@H]1c2ccc3c(c[nH]c3c2)[C@H]2Oc3cccc4c(c[nH]c34)C[C@H](N)C(=O)N[C@@H](CCC(N)=O)C(=O)N[C@@H]2C(=O)N[C@@H](CO)C(=O)N[C@@H]1C(=O)N[C@@H](CO)C(=O)N[C@@H](Cc1ccccc1)C(=O)O [Darobactin 11] | +++++ | +++++ | +++++ | ++++ | –
6 | C[C@@H]1NC(=O)[C@H]2NC(=O)[C@H](CC(N)=O)NC(=O)[C@@H](N)Cc3c[nH]c4c(cccc34)O[C@@H]2c2c[nH]c3cc(ccc23)[C@H](CCCN)[C@@H](C(=O)N[C@@H](CO)C(=O)N[C@@H](Cc2c[nH]c3ccccc23)C(=O)O)NC1=O [Darobactin 30] | – | – | – | – | Concentration factor of crude extract at which full growth inhibition is observed (P. aeruginosa PAO1): 0.11x; Concentration factor of crude extract at which full growth inhibition is observed (A. baumannii DSM-30008): 0.83x; Concentration factor of crude extract at which full growth inhibition is observed (E. coli ATCC25922 [1]): 0.83x; Concentration factor of crude extract at which full growth inhibition is observed (K. pneumoniae DSM-30104): 1.67x
7 | C[C@@H]1NC(=O)[C@H]2NC(=O)[C@H](CC(N)=O)NC(=O)[C@@H](N)Cc3c[nH]c4c(cccc34)O[C@@H]2c2c[nH]c3cc(ccc23)[C@H](CCCN)[C@@H](C(=O)N[C@@H](CO)C(=O)N[C@@H](Cc2ccccc2)C(=O)O)NC1=O [Darobactin 14] | +++ | ++ | ++ | +++ | –
8 | NCCC[C@H]1c2ccc3c(c[nH]c3c2)[C@H]2Oc3cccc4c(c[nH]c34)C[C@H](N)C(=O)N[C@@H](CC(N)=O)C(=O)N[C@@H]2C(=O)N[C@@H](CO)C(=O)N[C@@H]1C(=O)N[C@@H](CO)C(=O)N[C@@H](Cc1ccc(O)cc1)C(=O)O [Darobactin 10] | 0 | + | 0 | 0 | –
